Assay results: US5652363A, “Pyrido-1,4-oxazinylalkyl-benzamide derivatives” (C.D. Searle & Co., priority 1996, dated 1997)

Biological target: T1, PAF receptor (Homo sapiens, UniProt P25105)
T1 construct: tissue Lifesource, Inc. (Glenview, Ill.); host or cells: human platelets (membrane preparation)
Test: Human Platelet Receptor Binding Assay ([3H]PAF binding to human platelet membrane preparation)
Details: inhibition of specific binding of 0.75 nM [3H]PAF to human platelet membranes, 30 minutes at 24° C.; read-out: PAF Inhibitor Activity Human Platelet Receptor Assay
Experimental: Human Platelet Receptor Binding Assay
Compounds of the invention were evaluated for their ability to inhibit specific binding of [^3 H]PAF to human platelet membrane preparation. Human packed platelets were obtained from Lifesource, Inc. (Glenview, Ill.) and washed 3 times with 10 mM Trizma pH 7.0, 2 mM EDTA (dipotassium salt), 150 mM KCl and then once with 10 mM Trizma 7.4, 20 mM CaCl2. The platelets were broken by freezing in a dry ice-ethanol bath, followed by thawing in 24° C. water baths. The preparation was centrifuged (40,000×g, 20 minutes, 4° C.) and the pellet suspended in 10 mM Trizma 7.4, 20 mM CaCl2, 5 mg/ml human albumin. Protein concentration in the platelet membrane preparation was determined by the Lowry method [O. H. Lowry et al., J. Biol. Chem., 193, 265-275 (1951)]. Aliquots of the membrane preparation were stored at -70° C. Each preparation was characterized for PAF receptor number and dissociation constant (Kd). In binding assays 5 μl of test compound, solubilized in DMSO, was added to polypropylene tubes along with 0.75 nM [^3 H]PAF and 200 mcl [0.075 nM] of membranes and 95 μl 10 mM Trizma 7.4, 20 mM CaCl2, 5 mg/ml human albumin-Tubes were incubated for 30 minutes at 24° C. The incubation was terminated by adding 4 ml of ice-cold 10 mM Trizma pH 7.4, 20 mM CaCl2 and 20 mg/ml BSA prior to vacuum filtration using Whatman GF/C filters. Filters were prepared and counted in a scintillation counter. All DPM values (disintergrations per minute) were corrected for background and isotope decay. Triplicate determinations for single doses were averaged. The amount of non-specific binding was subtracted from all dose averages, giving an amount of specific binding in all cases. The IC50 values for the compounds of the invention were determined by the Allfit program using percent displacement data. (Allfit is a `basic` computer program for simultaneous curve fitting of a family of signoidal dose-response curves using the four parameter logistic equation.) Results are shown in Table I. In Table 1 "c-pent" means cyclopentyl; "c-hex" means cyclohexyl; "i-Pr" means isopropyl; "Me" means methyl; and "OMe" means methoxy.

T1 sequence (P25105 whole entry): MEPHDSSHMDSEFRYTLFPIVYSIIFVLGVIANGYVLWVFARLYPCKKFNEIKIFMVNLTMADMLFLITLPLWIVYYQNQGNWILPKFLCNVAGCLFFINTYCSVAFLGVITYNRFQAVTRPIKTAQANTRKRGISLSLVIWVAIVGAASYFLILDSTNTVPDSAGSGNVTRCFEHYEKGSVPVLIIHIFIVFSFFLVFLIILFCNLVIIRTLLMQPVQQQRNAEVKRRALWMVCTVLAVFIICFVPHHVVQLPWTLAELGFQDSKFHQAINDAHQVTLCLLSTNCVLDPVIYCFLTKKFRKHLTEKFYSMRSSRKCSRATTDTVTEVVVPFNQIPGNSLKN

IC50 | Structure (SMILES)
163 nM | COc1cc(CN2CCOc3cnccc32)ccc1C(=O)N(C1CCCC1)[C@@H]1C[C@H](C)C[C@H](C)C1 [Example 9]
219 nM | Cc1cc(C(=O)N(C2CCCCC2)C2CCCC2)ccc1CN1CCOc2cnccc21 [Example 10, N-cyclohexyl-N-cyclopentyl-4-[(2,3-dihydro-1H-pyrido[3,4-b][1,4]oxazin-1-yl)methyl]-3-methyl-benzamide]
2 nM | CC(C)N(C(=O)c1ccc(CN2CCOc3cnccc32)c(Br)c1)C1CCCCC1 [Example 11, 3-bromo-N-cyclohexyl-4-[(2,3-dihydro-1H-pyrido[3,4-b]-[1,4]oxazin-1-yl)methyl]-N-(1-methylethyl)benzamide]
505 nM | COc1cc(C(=O)N(C(C)C)C2CCCCC2)ccc1CN1C(=O)COc2ncccc21 [Example 17, N-cyclohexyl-4-[{2,3-dihydro-2-oxo-1H-pyrido(2,3-b)(1,4)oxazin-1-yl}methyl]-3-methoxy-N-(1-methylethyl)benzamide]
